Experimental findings from PubChem BioAssay (NCI) are described below.

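Cells were grown in 96-well plates and exposed to each compound for 48 hours at five concentrations; endpoints were interpolated linearly between bracketing concentrations, or set to the highest concentration if not reached. Here, GI50 denotes the concentration required for 50% inhibition of growth. TGI denotes the concentration required for complete inhibition of growth.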

Some test systems named below: HL-60(TB) leukemia; SW-620 colon; SN12C renal; HOP-62 NSCLC; NCI-H522 lung; SK-OV-3 ovarian; MOLT-4 leukemia; EKVX NSCLC; HT29 colon; SK-MEL-5 melanoma.
Common to all, as to experiment: NCI tumour cell line growth inhibition, 48 h

On to `CN1CCCNCCN(CCc2ccccn2)CCCN(C)CC1`, for which the TGI in the experiment with HL-60(TB) leukemia is more than 63.6 µM; in the experiment on SW-620 colon it was more than 53.6 µM; in the experiment with SN12C renal, more than 100 µM; in the experiment with HOP-62 NSCLC it was more than 100 µM; with NCI-H522 lung, more than 100 µM; in the experiment on SK-OV-3 ovarian it was more than 100 µM. Besides, the TGI in the experiment with MOLT-4 leukemia, in the experiment on EKVX NSCLC, in the experiment on HT29 colon and with SK-MEL-5 melanoma was more than 100 µM in each case.

Regarding `S=C1NCCN1C1=Nc2ccccc2CO1`, the GI50 with HL-60(TB) leukemia, in the experiment on SW-620 colon, with SN12C renal, in the experiment on HOP-62 NSCLC, in the experiment on NCI-H522 lung and in the experiment on SK-OV-3 ovarian was more than 100 µM throughout. For the same compound, the GI50 in the experiment with MOLT-4 leukemia was more than 100 µM; with EKVX NSCLC, 93.6 µM; with HT29 colon, more than 100 µM; with SK-MEL-5 melanoma, 41.7 µM. For the same compound, the TGI with HL-60(TB) leukemia, in the experiment on SW-620 colon, in the experiment on SN12C renal, with HOP-62 NSCLC, with NCI-H522 lung and in the experiment on SK-OV-3 ovarian was more than 100 µM in each case. For the same compound, the TGI with MOLT-4 leukemia is more than 100 µM; with EKVX NSCLC it was more than 100 µM; with HT29 colon, more than 100 µM; with SK-MEL-5 melanoma, 99.4 µM.
